Numbering of substitutions follows the chain as printed.
Tests used:
[1] = biological target: T1, PPO2 R128M ΔG210 (Amaranthus tuberculatus, UniProt Q0NZW9, DEL210-210/R128M); assay: biochemical; format: biochemical
T1 sequence (Q0NZW9 with tags, fused parts or gaps R128M/DEL210-210): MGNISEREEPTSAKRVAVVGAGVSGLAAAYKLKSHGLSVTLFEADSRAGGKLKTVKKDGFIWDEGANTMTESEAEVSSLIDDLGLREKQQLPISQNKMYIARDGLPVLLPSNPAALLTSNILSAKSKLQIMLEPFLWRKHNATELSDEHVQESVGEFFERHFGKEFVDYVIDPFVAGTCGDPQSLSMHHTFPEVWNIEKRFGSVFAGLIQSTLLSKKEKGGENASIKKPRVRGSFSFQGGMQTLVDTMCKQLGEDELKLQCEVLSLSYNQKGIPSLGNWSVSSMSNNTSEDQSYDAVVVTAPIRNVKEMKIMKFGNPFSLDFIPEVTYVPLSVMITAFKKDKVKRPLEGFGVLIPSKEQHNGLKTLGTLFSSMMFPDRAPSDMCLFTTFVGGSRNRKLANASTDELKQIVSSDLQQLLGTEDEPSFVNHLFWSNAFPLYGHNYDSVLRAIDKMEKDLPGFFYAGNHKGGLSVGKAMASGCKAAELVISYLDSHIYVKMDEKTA

[2] = biological target: T2, PPO2 R128N ΔG210 (Amaranthus tuberculatus, UniProt Q0NZW9, DEL210-210/R128N); assay: biochemical; format: biochemical
T2 sequence (Q0NZW9 with tags, fused parts or gaps R128N/DEL210-210): T1 sequence (Q0NZW9 with tags, fused parts or gaps R128M/DEL210-210) with M98N

[3] = biological target: T3, PPO2 R128Q ΔG210 (Amaranthus tuberculatus, UniProt Q0NZW9, DEL210-210/R128Q); assay: biochemical; format: biochemical
T3 sequence (Q0NZW9 with tags, fused parts or gaps R128Q/DEL210-210): T1 sequence (Q0NZW9 with tags, fused parts or gaps R128M/DEL210-210) with M98Q

[4] = biological target: T4, PPO2 R128C ΔG210 in Escherichia coli hemG (Amaranthus tuberculatus, UniProt Q0NZW9, DEL210/R128C, cells depend on it); format: cell-based; settings: read-out: IC50 (E. coli hemG growth)
T4 sequence (Q0NZW9 with tags, fused parts or gaps R128C/DEL210): T1 sequence (Q0NZW9 with tags, fused parts or gaps R128M/DEL210-210) with M98C

[5] = biological target: T5, PPO2 R128I ΔG210 in Escherichia coli hemG (Amaranthus tuberculatus, UniProt Q0NZW9, DEL210-210/R128I, cells depend on it); format: cell-based; settings: read-out: IC50 (E. coli hemG growth)
T5 sequence (Q0NZW9 with tags, fused parts or gaps R128I/DEL210-210): T1 sequence (Q0NZW9 with tags, fused parts or gaps R128M/DEL210-210) with M98I

Row | Structure (SMILES) | IC50 [1] [µM] | IC50 [2] [µM] | IC50 [3] [µM] | IC50 [4] [µM] | IC50 [5] [µM] | Resistance factor [1] | Resistance factor [2] | Resistance factor [3]
1 | CS(=O)(=O)NC(=O)c1cc(Oc2ccc(C(F)(F)F)cc2Cl)ccc1[N+](=O)[O-] [Fomesafen, fomesafen] | > 10 | > 10 | > 10 |  |  |  |  | 
2 | CCOC(=O)C(C)OC(=O)c1cc(Oc2ccc(C(F)(F)F)cc2Cl)ccc1[N+](=O)[O-] (stereo not drawn) [Lactofen, lactofen] | > 10 | > 10 | 1.75 | > 10 | > 10 |  |  | 
3 | CC(C)N(C)S(=O)(=O)NC(=O)c1cc(-n2c(=O)cc(C(F)(F)F)n(C)c2=O)c(F)cc1Cl [Saflufenacil, saflufenacil] | > 10 | > 10 | > 10 | > 10 | > 10 |  |  | 
4 | C#CCN1C(=O)C(F)(F)Oc2cc(F)c(-n3c(=O)n(C)c(=S)n(C)c3=O)cc21 [Trifludimoxazin, trifludimoxazin] | 0.182 | 0.175 | 0.0145 | 0.0465 | 0.0829 | 743 | 714 | 59

From article PMC10092844, “Inhibition profile of trifludimoxazin towards PPO2 target site mutations” (Pest Management Science, 2022)
